Tests used:
[1] = test system: Long-Evans rats; test: Novel Object Recognition (NOR) test in rats with scopolamine-induced cognitive impairment; assay type: in vivo, rat; conditions: male Long-Evans rats, scopolamine 0.3 mg/kg i.p.; statistically significant difference in discrimination index vs scopolamine alone group
Method: Six-week old male Long-Evans rats were used for this test. For 2 days before starting the test, the rats were acclimated to experimental operations such as administration and a test device (that is, a black or gray plastic cage with a width of 40 cm, a depth of 30 cm and a height of 45 cm). Each test compound was dissolved in a 0.1 N hydrochloric acid to be orally administered. Thirty minutes after the administration, scopolamine hydrobromide was intraperitoneally administered at a 0.3 mg/kg dose, so as to induce cognitive impairment. After another 30 minutes, each rat was acclimated in the test device for 3 minutes, and thereafter, two blocks in the same shape were put in the test device as acquisition trial, and exploring time for each block was measured for 5 minutes. Two hours after the acquisition trial, the rat was acclimated in the test device for 3 minutes, and thereafter, the same block as those used in the acquisition trial and a new block in a different shape were put in the cage for retention trial. The exploring time for each block was measured for 3 minutes, and a ratio of the exploring time for the newly used block to the sum of the exploring times for the respective blocks was calculated as a discrimination index. The thus obtained discrimination indexes were compared among a group of rats to which a medium alone was administered (medium group), a group of rats to which scopolamine alone was administered (scopolamine alone group) and a group of rats to which both the test compound and scopolamine were administered, so as to evaluate the action of the test compound on the novel object recognition function (cognitive function) of the rats.
Each discrimination index was shown as an average and a standard error. The statistical significance between the medium group and the scopolamine alone group was analyzed by the independent t-test. The statistical significance between the scopolamine alone group and each sample group was analyzed by one-way analysis of variance and then by Dunnett's multiple comparison test. The significance level was set to 5% on both sides. […] The analysis was carried out by using Prism 5 for Windows for Japanese, ver. 5.03.
A minimum effective dose at which a statistically significant difference was found between a group suffering from the cognitive impairment induced by scopolamine and a group treated with each compound is shown in Table 10.

[2] = target: human mGluR2 (Homo sapiens (Human), UniProt Q14416); test: [35S]GTPγS binding assay (Affinity to mGluR2); assay type: biochemical; conditions: cell membrane fraction of HEK293 cells stably expressing human mGluR2; glutamic acid 10 μM
Summary of the method: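 Membranes from HEK293 cells stably co-expressing human mGluR2 and SLC1A3 (1.8–3 μg protein) preincubated with compound 30 min at RT, then stimulated with 10 μM glutamate 15 min; [35S]GTPγS (0.8 kBq) with WGA-SPA beads 1 h, buffer with 3 μM GDP, 100 mM NaCl, 1 mM MgCl2. IC50 from inhibition of glutamate-specific binding.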

Chain of human mGluR2 (Q14416 19-872): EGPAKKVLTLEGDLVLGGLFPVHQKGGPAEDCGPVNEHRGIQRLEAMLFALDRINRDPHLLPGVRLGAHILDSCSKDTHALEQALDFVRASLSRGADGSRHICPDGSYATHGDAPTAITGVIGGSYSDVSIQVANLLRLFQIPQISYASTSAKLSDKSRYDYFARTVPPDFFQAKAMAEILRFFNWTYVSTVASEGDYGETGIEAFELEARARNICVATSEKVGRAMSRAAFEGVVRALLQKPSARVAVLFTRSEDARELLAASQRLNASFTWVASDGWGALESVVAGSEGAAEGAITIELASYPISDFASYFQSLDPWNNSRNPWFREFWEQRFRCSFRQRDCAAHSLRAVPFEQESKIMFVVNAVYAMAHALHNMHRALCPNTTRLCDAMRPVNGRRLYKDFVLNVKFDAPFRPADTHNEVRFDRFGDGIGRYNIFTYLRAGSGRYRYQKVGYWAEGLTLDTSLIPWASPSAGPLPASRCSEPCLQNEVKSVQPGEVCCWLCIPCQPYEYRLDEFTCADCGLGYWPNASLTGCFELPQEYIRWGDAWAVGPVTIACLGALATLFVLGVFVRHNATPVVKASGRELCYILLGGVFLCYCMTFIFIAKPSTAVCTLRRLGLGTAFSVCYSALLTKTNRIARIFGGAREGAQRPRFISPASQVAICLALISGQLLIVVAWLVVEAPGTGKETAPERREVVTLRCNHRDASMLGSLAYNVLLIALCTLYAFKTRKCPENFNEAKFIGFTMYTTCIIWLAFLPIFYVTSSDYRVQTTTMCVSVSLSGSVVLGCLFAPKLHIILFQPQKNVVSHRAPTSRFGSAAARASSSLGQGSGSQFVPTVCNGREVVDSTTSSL

Structure (SMILES)	Minimum effective dose [1]	IC50 [2] [nM]
Cc1cc(-c2nc(-c3ccc(OC(F)F)c(C)c3)n3c2CCO[C@H](C)C3)cc(C)n1 [Example 14, (R)-3-(4-(difluoromethoxy)-3-methylphenyl)-1-(2,6-dimethylpyridin-4-yl)-6-methyl-5,6,8,9-tetrahydroimidazo[1,5-d][1,4]oxazepine]	1 mg/kg, p.o.	5.6
COc1cc(-c2nc(-c3cc(C)nc(C)c3)c3n2C[C@@H](C)OCC3)ccc1Cl [Example 1, (R)-3-(4-chloro-3-methoxyphenyl)-1-(2,6-dimethylpyridin-4-yl)-6-methyl-5,6,8,9-tetrahydroimidazo[1,5-d][1,4]oxazepine]	3 mg/kg, p.o.	10
COc1cc(-c2nc(-c3cc(C)nc(C)c3)c3n2C[C@@H](C)OCC3)ccc1C(F)(F)F [Example 7, (R)-1-(2,6-dimethylpyridin-4-yl)-3-(3-methoxy-4-(trifluoromethyl)phenyl)-6-methyl-5,6,8,9-tetrahydroimidazo[1,5-d][1,4]oxazepine]	0.3 mg/kg, p.o.	4.2
